Reference: article PMC5355235, “FLT3 activating mutations display differential sensitivity to multiple tyrosine kinase inhibitors” (Oncotarget, 2017)
Like-named read-outs stand apart in the source and are kept apart here.

How the values were obtained:
[1] = test system: BaF3 FLT3 I836L+D mutant cells; test: MTT growth inhibition assay, BaF3 FLT3 I836L+D cells; type: cell-based; conditions: Mus musculus, no IL-3, 48 h, read-out: Proliferation IC50
Description: (§1) Figure 1 Growth of AL mutants in the presence of FLT3 TKI The BaF3 AL mutants were grown in the absence of IL-3 and analyzed by treatment in increasing concentrations of FLT3 TKI for 48 hours, after which growth inhibition was assessed using the MTT assay. Means are representative of at least three independent experiments.
(§2) The cells were grown in the absence of IL3 and analyzed by treatment in increasing concentrations of FLT3 TKI for 48 hours, after which growth inhibition was assessed using the MTT assay. Each experiment was performed at least three times and representative results are shown.
(§3) Based on Trypan Blue exclusion, 2 × 10^4 viable cells were seeded in quadruplicate in a 96-well microtiter plate in the presence or absence of inhibitor for 48 h. The effect of drug activity on cell viability was measured using the 3-(4,5-Dimethylthiazol-2-yl)-2,5-diphenyltetrazolium bromide (MTT) assay according to the manufacturer's instructions (Roche Applied Science, Indianapolis, IN, USA). Following treatment, cells were incubated for 4 h in MTT followed by dissolution in solubilization buffer overnight. Absorbance was measured at 570 nm on a Bio-Rad plate reader (Hercules, CA, USA). […] Results shown are presented as means and are representative of at least three independent experiments.

[2] = test system: BaF3 FLT3 D593D mutant cells; test: MTT growth inhibition assay, BaF3 FLT3 D593D cells; type: cell-based; conditions: Mus musculus, no IL-3, 48 h, read-out: Proliferation IC50
Description: as §1, §2, §3

[3] = test system: BaF3 FLT3 I836S mutant cells; test: MTT growth inhibition assay, BaF3 FLT3 I836S cells; type: cell-based; conditions: Mus musculus, read-out: Proliferation IC50
Description: as §1, §2, §3

[4] = test system: BaF3 FLT3 D835Y mutant cells; test: MTT growth inhibition assay, BaF3 FLT3 D835Y cells; type: cell-based; conditions: Mus musculus, no IL-3, 48 h, read-out: Proliferation IC50
Description: as §1, §2, §3

BaF3/ITD cells = test: MTT growth inhibition assay, BaF3 FLT3-ITD cells; type: cell-based; conditions: Mus musculus, no IL-3, 48 h, read-out: Proliferation IC50
Description: as §1, §2, §3

[5] = test system: BaF3 FLT3 I836T mutant cells; test: MTT growth inhibition assay, BaF3 FLT3 I836T cells; type: cell-based; conditions: Mus musculus, no IL-3, 48 h, read-out: Proliferation IC50
Description: as §1, §2, §3

[6] = test system: BaF3 FLT3 D835A mutant cells; test: MTT growth inhibition assay, BaF3 FLT3 D835A cells; type: cell-based; conditions: Mus musculus, read-out: Proliferation IC50
Description: as §1, §2, §3

[7] = test system: BaF3 FLT3 840G+S mutant cells; test: MTT growth inhibition assay, BaF3 FLT3 840G+S cells; type: cell-based; conditions: Mus musculus, no IL-3, 48 h, read-out: Proliferation IC50
Description: as §1, §2, §3

[8] = test system: BaF3 FLT3 D835N mutant cells; test: MTT growth inhibition assay, BaF3 FLT3 D835N cells; type: cell-based; conditions: Mus musculus, no IL-3, 48 h, read-out: Proliferation IC50
Description: as §1, §2, §3

[9] = test system: BaF3 FLT3 D835G mutant cells; test: MTT growth inhibition assay, BaF3 FLT3 D835G cells; type: cell-based; conditions: Mus musculus, no IL-3, 48 h, read-out: Proliferation IC50
Description: as §1, §2, §3

[10] = test system: BaF3 FLT3 D835L+K mutant cells; test: MTT growth inhibition assay, BaF3 FLT3 D835L+K cells; type: cell-based; conditions: Mus musculus, no IL-3, 48 h, read-out: Proliferation IC50
Description: as §1, §2, §3

BaF3 FLT3 D835Y cells = test: Engraftment of BaF3 D835Y luciferase cells in BALB/c mice, bioluminescence imaging; type: in vivo; conditions: 20 mg/kg twice daily subcutaneous, day 5 to day 9
Description: On day 5 following transplantation, the level of engraftment was assessed by imaging mice for bioluminescence on an IVIS Spectrum imager. […] This experiment was repeated three times.
Cells were sorted for GFP and CD135 expression on a FACS AriaII cytometer using FACSDiva software. For engraftment, 2 ×10^6 cells were injected via tail vein into BALB/c mice (Jackson Laboratories, Bar Harbor, ME, USA) (day 0). […] [36, 37] […] Mice were imaged by intraperitoneal injection of luciferin (3 mg) and visualizing on an IVIS Spectrum imager (Caliper LifeSciences, Hopkinton, MA, USA) using Living Image software for analysis on day 5 following inoculation to monitor engraftment and on day 9 to assess drug effect. All animal procedures were conducted in accordance with the policy of the Johns Hopkins University School of Medicine Animal Care and Use Committee.

all FLT3 AL mutants = conditions: read-out: FLT3 autophosphorylation IC50, BaF3 cells, 1 h treatment, Western blot
Description: Activated FLT3 expression was measured by performing immunoprecipitation, SDS-PAGE and Western blotting as previously described. Specifically, 10^7 cells were washed in medium and treated with inhibitor for 1 h followed by stimulation with 25 ng/ml of FLT3 ligand for 15 minutes where indicated. Cells were washed twice with ice-cold PBS and lysed in 300 µl of NP-40 lysis buffer (150 mM NaCl, 20 mM TrisHCl (pH7.4), 10% glycerol, 1% NP-40, 10 mM EDTA, 100 mM NaF) with 2 mM Na3VO4 and protease inhibitors (Complete Tablets, Roche, Mannheim, Germany) at 4°C for 30 m. Cell lysate was harvested by centrifugation at 13,000 × g for 30 m at 4°C. FLT3 S-18 antibody was incubated with 500 µg lysate overnight at 4°C followed by immunoprecipitation with protein A-agarose beads for 2 h. Beads were washed once in Tris buffered saline with 1% Tween-20 (TBST) and twice in TBS. Samples were boiled in sodium dodecyl sulfate (SDS) sample buffer prior to separating in a 8% SDS-polyacrylamide gel (SDS-PAGE). Proteins were transferred to a polyvinyl diflouride (PVDF) membrane (Millipore, Bedford, MA, USA) and detected by 4G10 phosphotyrosine antibody and anti-FLT3 S-18 antibody. FLT3 was visualized using the Odyssey Infra Red Imaging System from Li-Cor (Lincoln, NE, USA) using AlexaFluor 680 goat anti-mouse and AlexaFluor 800 goat anti-rabbit antibodies. […]

FLT3/ITD = FLT3/ITD autophosphorylation and signaling pathways, Western blot; type: cell-based; conditions: FLT3/ITD cells, 1 h, concentration-dependent
Description: Activated FLT3 expression was measured by performing immunoprecipitation, SDS-PAGE and Western blotting as previously described. Specifically, 10^7 cells were washed in medium and treated with inhibitor for 1 h followed by stimulation with 25 ng/ml of FLT3 ligand for 15 minutes where indicated. Cells were washed twice with ice-cold PBS and lysed in 300 µl of NP-40 lysis buffer (150 mM NaCl, 20 mM TrisHCl (pH7.4), 10% glycerol, 1% NP-40, 10 mM EDTA, 100 mM NaF) with 2 mM Na3VO4 and protease inhibitors (Complete Tablets, Roche, Mannheim, Germany) at 4°C for 30 m. Cell lysate was harvested by centrifugation at 13,000 × g for 30 m at 4°C. FLT3 S-18 antibody was incubated with 500 µg lysate overnight at 4°C followed by immunoprecipitation with protein A-agarose beads for 2 h. Beads were washed once in Tris buffered saline with 1% Tween-20 (TBST) and twice in TBS. Samples were boiled in sodium dodecyl sulfate (SDS) sample buffer prior to separating in a 8% SDS-polyacrylamide gel (SDS-PAGE). Proteins were transferred to a polyvinyl diflouride (PVDF) membrane (Millipore, Bedford, MA, USA) and detected by 4G10 phosphotyrosine antibody and anti-FLT3 S-18 antibody. FLT3 was visualized using the Odyssey Infra Red Imaging System from Li-Cor (Lincoln, NE, USA) using AlexaFluor 680 goat anti-mouse and AlexaFluor 800 goat anti-rabbit antibodies. Phosphorylation of the FLT3 downstream signaling mediators, STAT5, AKT and MAP kinase was investigated by loading 50 µg of whole cell lysate and probing with the indicated antibodies. The membrane was washed and incubated in goat anti-rabbit secondary antibody conjugated to horseradish peroxidase followed by enhanced chemiluminescence (ECL). The membrane was subsequently stripped in 200 mM glycine buffer, pH 2.5 with 0.1% Tween-20 and reprobed for STAT5, AKT and MAP kinase expression using the respective antibodies.

[11] = BaF3 FLT3 I836S, no IL-3, 48 h, MTT
[12] = BaF3 FLT3 D835A, no IL-3, 48 h, MTT

IC50 [1] [nM]	IC50 [2] [nM]	IC50 [3, 11] [nM]	IC50 [4] [nM]	IC50 (BaF3/ITD cells) [nM]	IC50 [5] [nM]	IC50 [6, 12] [nM]	IC50 [7] [nM]	IC50 [8] [nM]	IC50 [9] [nM]	IC50 [10] [nM]	Structure (SMILES)	IC50 ([3]; BaF3, 48 h) [nM]	Leukemic burden (bioluminescence) on day 9 (BaF3 FLT3 D835Y cells)	IC50 (all FLT3 AL mutants) [nM]	Inhibition of FLT3 autophosphorylation and phosphorylation of STAT5, AKT and Map kinase (FLT3/ITD)	IC50 ([6]; BaF3, 48 h) [nM]
> 200	> 200	> 200	> 100	2.4	5.3	> 200	2.1	10.3	8.6	> 200	Cc1ccc(F)c(NC(=O)Nc2ccc(-c3cccc4[nH]nc(N)c34)cc2)c1 [Linifanib]					
> 200	> 200	> 200	> 100	5.4		> 200	4	46.4	48.1	> 200	CCN(CC)CCNC(=O)c1c(C)[nH]c(/C=C2\C(=O)Nc3ccc(F)cc32)c1C [Sunitinib]					
> 200	> 200	> 200	> 200	41	31.9	62	35	58.3	56	> 200	O=C(c1ccc(/C=C/c2n[nH]c3ccccc23)cc1)N1CCNCC1 [KW2449]					

Structure (SMILES)	IC50 [1] [nM]	IC50 [2] [nM]	IC50 [3, 11] [nM]	IC50 [4] [nM]	IC50 (BaF3/ITD cells) [nM]	IC50 [5] [nM]	IC50 [6, 12] [nM]	IC50 [7] [nM]	IC50 [8] [nM]	IC50 [9] [nM]	IC50 [10] [nM]	IC50 ([3]; BaF3, 48 h) [nM]	Leukemic burden (bioluminescence) on day 9 (BaF3 FLT3 D835Y cells)	IC50 (all FLT3 AL mutants) [nM]	Inhibition of FLT3 autophosphorylation and phosphorylation of STAT5, AKT and Map kinase (FLT3/ITD)	IC50 ([6]; BaF3, 48 h) [nM]
C[C@]12O[C@H](C[C@]1(O)CO)n1c3ccccc3c3c4c(c5c6ccccc6n2c5c31)CNC4=O [Lestaurtinib]	2.1	8		9.8	8.6	13.4		8	7.6	6	2.1	15	greatly reduced	≤ 5	inhibited FLT3 autophosphorylation	5
